Data published in patent publication US20200270576A1, “Ex Vivo Maintenance and Expansion of Stem Cells” (priority 2017, published 2020).

Legend:
bone marrow cells = assay: TMI fluorescence (unfolded protein) in bone marrow cells from treated mice; assay type: in vivo; settings: bone marrow cells isolated from treated mice
Experimental: FIG. 6A-D depict the validation of tetraphenylethene maleimide (TMI) as a probe to measure unfolded protein. FIG. 6A depicts that TMI is a cell permeable dye that fluoresces upon binding to cysteine thiols. The free thiol side chains of non-disulphide bonded hydrophobic cysteines are typically buried within the core of globular proteins, but can be exposed in unfolded proteins. FIG. 6B depicts that TMI fluorescence was higher in bone marrow cells after a 4 hour incubation at 42° C. as compared to 37° C. Since heat shock induces protein unfolding, this validated TMI as a means to quantify unfolded protein. FIG. 6C depicts that TMI fluorescence in bone marrow cells was increased after treatment with the proteasome inhibitor bortezomib. […] FIG. 6B-D validated that TMI can be used to quantify unfolded protein (protein quality) in hematopoietic cells.
As a complement to evaluating protein quality by assessing changes in ubiquitylated protein, a quantitative orthogonal assay to measure protein quality was developed. Tetraphenylethene maleimide (TMI) is a cell permeable dye that fluoresces upon binding to cysteine thiols. […] We adapted TMI to quantify unfolded proteins within single hematopoietic cells by flow cytometry. We validated TMI by assessing the effect of heat shock, which induces protein unfolding, on TMI fluorescence in bone marrow cells. […]

Hsf1 = Hsf1 expression and localization by immunofluorescence in cultured HSCs; assay type: cell-based, mouse; settings: 10 days culture; 17-AAG 5 nM, HSF1A 8 uM final concentration
Text: FIG. 14 depicts representative immunofluorescence staining of HSCs cultured for 10 days in the presence or absence of 17-AAG or HSF1A. Addition of 17-AAG or HSF1A to culture medium increased Hsf1 accumulation in the nucleus of cultured HSCs. Hsf1-deficient HSCs and cells stained without primary antibody (Neg Con) are shown as controls.
Since Hsf1 promoted HSC maintenance and protein homeostasis in vitro (FIG. 13), we investigated whether increasing Hsf1 expression or activity would further enhance HSC maintenance. […] Hsf1 can become active as a transcription factor when it translocates to the nucleus. We thus tested whether inhibitors of HSP90 or TRiC would promote Hsf1 accumulation in the nucleus of cultured HSCs by culturing HSCs for 10 days in the presence or absence of 17-AAG (HSP90 inhibitor; 5 nM final concentration) or HSF1A (TRiC inhibitor; 8 uM final concentration), and assessed Hsf1 expression and localization by immunofluorescence.

HSCs = assay: Competitive transplantation of HSCs cultured 10 days, with serial transplantation; assay type: cell-based, murine
Text: FIG. 16A-B depict that HSC functionality is maintained and expanded in vitro by interventions that can induce/activate Hsf1. FIG. 16A depicts donor cell engraftment 16 weeks after transplantation of 10 HSCs cultured for 10 days in the presence or absence of an HSP90 inhibitor (17-AAG) or TRiC inhibitor (HSF1A) or from 10 freshly isolated HSCs. Cells were transplanted with 2×10^5 freshly isolated congenic bone marrow cells (n=3 independent experiments with 3-5 recipients/condition/experiment). […] Addition of either 17-AAG or HSF1A increased the reconstituting potential of cultured HSCs as compared to both control cultured and freshly isolated HSCs.
To test if HSCs depend on Hsf1 for their maintenance in vitro, we conditionally deleted Hsf1 from HSCs, cultured them for 10 days and assessed their long-term multilineage reconstituting activity in competitive transplantation assays. The assay for testing HSC function is to assess their capacity to give long-term (16+ week) multilineage (B cell, T cell and myeloid cell) reconstitution of the blood system of an irradiated transplant recipient. A competitive transplantation assay provides a quantitative readout of HSC regenerative activity.
Modest declines in proteostasis impair HSC maintenance in vivo. […] This raises the possibility that increasing Hsf1 activity could promote HSC maintenance in vitro by enhancing proteostasis capacity. To test if HSP90 inhibitors or TRiC inhibitors promote HSC maintenance in vitro, purified HSCs were sorted from young adult murine bone marrow (CD45.1^+) into 96-well plates (10/well) containing our HSC medium supplemented with 17-AAG or HSF1A. HSCs were cultured for 10 days and competitively transplanted with 2×10^5 freshly isolated congenic bone marrow cells (CD45.2^+) into irradiated mice (CD45.2^+). Recipient mice were bled monthly (for 4 months) to assess levels of donor-derived CD45.1^+ hematopoietic cells. Self-renewal capacity of HSCs was assessed by serially transplanting hematopoietic cells from the primary recipients into secondary irradiated recipients (3×10^6 cells/recipient). […] Similar results are expected for other HSP90 or TRiC inhibitors.
To test if HSP90 inhibitors or TRiC inhibitors enable HSC expansion in vitro, purified HSCs were sorted from young adult bone marrow (CD45.1^+) into 96-well plates (10/well) containing HSC medium supplemented with 17-AAG or HSF1A. HSCs were cultured for 10 days and competitively transplanted with 2×10^5 freshly isolated congenic bone marrow cells (CD45.2^+) into irradiated mice (CD45.2^+). At the same time, 10 freshly isolated HSCs were transplanted with 2×10^5 freshly isolated congenic bone marrow cells into irradiated mice. Recipient mice were bled monthly (for 4 months) to assess levels of donor-derived CD45.1^+ hematopoietic cells. Self-renewal capacity of HSCs was assessed by serially transplanting hematopoietic cells (3×10^6 cells/recipient) into secondary irradiated recipients. […] Similar results are expected for other HSP90 or TRiC inhibitors.

[1] = test system: Hsf1-deficient and control HSCs; assay: Competitive transplantation of cultured wild-type and Hsf1-deficient HSCs; assay type: cell-based, mice; settings: 12 weeks after transplantation
Text: FIG. 17 depicts that Hsf1 is required for 17-AAG and HSF1A to enhance HSC maintenance and expansion in vitro. Donor cell engraftment 12 weeks after transplantation of 10 wild-type and Hsf1-deficient HSCs cultured for 10 days in the presence or absence of 17-AAG, HSF1A or DMSO. Cells were transplanted with 2×10^5 freshly isolated congenic bone marrow cells (n=7-9; *P<0.05, **P<0.01).
We tested whether the positive effects of 17-AAG and HSF1A on HSC maintenance/expansion in vitro were mediated by Hsf1. Purified Hsf1-deficient and control HSCs were sorted from adult bone marrow (CD45.2^+) into 96-well plates (10/well) containing HSC medium supplemented with 17-AAG, HSF1A or vehicle (DMSO). HSCs were cultured for 10 days and competitively transplanted with 2×10^5 freshly isolated congenic bone marrow cells (CD45.1^+) into irradiated mice (CD45.1^+). Recipient mice were bled monthly to assess levels of donor-derived CD45.2^+ hematopoietic cells. […] However, the positive effect of 17-AAG and HSF1A was lost with Hsf1-deficient HSCs (FIG. 17).

CD48-LSK HSCs/MPPs = assay: Western blot of ubiquitylated protein in cultured HSCs; assay type: cell-based, mouse; settings: added to culture medium; HSCs 4 and 18 hours in vitro
Experimental: FIG. 10A-C depicts increased protein synthesis and reduced protein quality within HSCs in vitro. FIG. 10A depicts relative protein synthesis rates of HSCs normalized to bone marrow cells in vivo (n=6) and after 4 hours in vitro (n=5). Statistical significance was assessed with a two-tailed Student's t-test (***P<0.001). FIGS. 10B and 10C depict western blots that examined ubiquitylated protein levels in freshly isolated or cultured CD48^−LSK HSCs/MPPs. […] The accumulation of ubiquitylated protein was prevented by addition of the translation inhibitor cycloheximide (CHX) to culture medium.
The accumulation of ubiquitylated protein could be blocked by adding the translation inhibitor cycloheximide to the culture medium (FIG. 10B, 10C).

[2] = test system: primary bone marrow cells; assay: OPP incorporation (protein synthesis) by flow cytometry; assay type: cell-based, mouse; settings: pre-treatment with translation inhibitor; primary bone marrow cells in culture
Experimental: FIG. 1A-D depict quantification of protein synthesis in hematopoietic cells. FIG. 1A depicts how 0-propargyl-puromycin (OPP) was used to quantify protein synthesis within cells. OPP is a puromycin analog with a terminal alkyne group that mimics an aminoacyl-tRNA and integrates into nascent polypeptides. Azide-alkyne cycloaddition can covalently link a fluorescently tagged azide molecule to OPP that has been incorporated into new peptides. FIG. 1B depicts that when OPP was added to cell culture medium, its incorporation in primary bone marrow cells was detected and quantified by flow cytometry. […] FIG. 1C depicts OPP incorporation in CD150^+CD48^−Lineage^−Sca1^+ckit^+ (CD150^+CD48^−LSK) HSCs and unfractionated bone marrow cells one hour after administration in vivo. FIG. 1D depicts OPP incorporation (protein synthesis rates) in HSCs, multipotent progenitors (MPP), common myeloid progenitors (CMP), granulocyte macrophage progenitors (GMP), granulocytes (GR) megakaryocyte erythroid progenitors (MEP), CD71^+Ter119^+ erythroid progenitors (E), pro-B, pre-B, IgM^+ B cells (IgM), CD3^+ T cells (T), and unfractionated bone marrow cells (BM). […] Statistical significance relative to HSCs was assessed using a repeated-measures one way ANOVA followed by Dunnett's test (n=9; **P<0.01, ***P<0.001).

CC(C)C[C@H](NC(=O)[C@H](Cc1ccccc1)NC(=O)c1cnccn1)B(O)O [Bortezomib]
increase in TMI fluorescence as compared to cells from vehicle treated controls (bone marrow cells): ~30%

CCc1ccc(S(=O)(=O)Nc2cc(-c3cccs3)nn2-c2ccccc2)cc1 [HSF1A]
Hsf1 abundance in the nucleus of cultured HSCs (Hsf1): increase Hsf1 abundance in the nucleus
donor cell reconstitution vs recipients of freshly isolated HSCs (HSCs; 10 HSCs cultured 10 days vs 10 freshly isolated HSCs): higher levels of donor cell reconstitution as compared to recipients of freshly isolated HSCs
donor cell reconstitution in primary recipients vs HSCs cultured without agent (HSCs; 10 HSCs cultured 10 days, with 2x10^5 congenic bone marrow cells, 16 weeks): significantly higher levels of donor cell reconstitution as compared to controls
fraction of recipients with long-term multilineage reconstitution vs HSCs cultured without agent (HSCs; primary and secondary transplants, 16 week, >0.5% B-, T-, myeloid cells): greater fraction
fraction of recipients with long-term multilineage reconstitution vs freshly isolated HSCs (HSCs; secondary transplants): significantly greater fraction
donor cell reconstitution in secondary recipients vs HSCs cultured without agent (HSCs; serial transplant, 3x10^6 cells/recipient): even more pronounced
donor cell reconstitution vs controls (DMSO), control HSCs ([1]; 10 HSCs cultured 10 days): higher levels of donor cell reconstitution as compared to controls
positive effect on donor cell reconstitution with Hsf1-deficient HSCs ([1]; Hsf1-deficient HSCs cultured 10 days): lost

C[C@@H]1C[C@@H]([C@H](O)CC2CC(=O)NC(=O)C2)C(=O)[C@@H](C)C1 [cycloheximide]
accumulation of ubiquitylated protein (CD48-LSK HSCs/MPPs): blocked
incorporation of OPP (new protein synthesis) [2]: inhibited
